Common to all, as to assay type: functional, Rattus norvegicus
Test [1] is described as follows: Antagonistic activity towards NMDA receptor 1A/2A subtype was determined.
Test [2] is described as follows: Antagonistic activity towards NMDA receptor 1A/2B subtype was determined.
Test [3] is described as follows: Antagonistic activity towards NMDA receptor 1A/2C subtype was determined.

From ChEMBL document CHEMBL1130622, “N-(2-(4-hydroxyphenyl)ethyl)-4-chlorocinnamide: a novel antagonist at the 1A/2B NMDA receptor subtype” (Bioorg Med Chem Lett, 1998) come the findings set out here.

In general, IC50 refers to the midpoint of a concentration-inhibition curve. As to `O=C(/C=C/c1ccccc1)NCCc1ccc(O)cc1`, the IC50 in test [1] was over 300 µM; in test [2] it was 0.68 µM; in test [3], over 300 µM.
Turning to `O=C(/C=C/c1ccc(Cl)cc1)NCCc1ccc(Cl)cc1`, the results for the IC50 in test [1], in test [2] and in test [3] were 160 µM, over 300 µM and over 300 µM, respectively.
Consider `N#C/C(=C\c1ccc(Cl)cc1)C(=O)NCCc1ccc(O)cc1`, for which the IC50 came out at 78 µM in test [1], 3.4 µM in test [2] and 105 µM in test [3].
With `N#C/C(=C\C(=O)NCCc1ccc(O)cc1)c1ccc(Cl)cc1`, the figures for the IC50 in test [1], in test [2] and in test [3] were over 300 µM, 9 µM and over 300 µM, respectively.
Consider `O=C(/C=C/c1ccc(O)cc1)NCCc1ccc(Cl)cc1`, for which the IC50 in test [1] was over 300 µM; in test [2], 0.33 µM; in test [3], over 300 µM.
As for `O=C(/C=C/c1ccc(Cl)cc1)NCCc1ccccc1`, the half-inhibitory concentration (IC50) in test [1], in test [2] and in test [3] was over 300 µM in each case.
As to `O=C(/C=C/c1ccc(Cl)cc1)NCCc1ccc(O)cc1`, the 50% inhibitory concentration (IC50) was over 300 µM in test [1], 0.17 µM in test [2] and over 300 µM in test [3].
For `O=C(/C=C/c1ccc(Cl)cc1)NCCc1cccc(O)c1`, the half-inhibitory concentration (IC50) in test [1] was over 300 µM; in test [2], 7.4 µM; in test [3], 175 µM.
In the case of `O=C(/C=C/c1ccc(O)cc1)NCCc1ccc(O)cc1` [N-P-COUMAROYL TYRAMINE], the IC50 in test [1] is over 300 µM; in test [2], 21 µM; in test [3], 200 µM.
